Experimental data: BindingDB's records for aid1799747 (Csar, 2012)

molecular target: T1, UDP-3-O-acyl-N-acetylglucosamine deacetylase (Aquifex aeolicus (strain VF5), UniProt O67648); experiment: OctetRed; conditions: pH 7; 25 °C
T1 sequence (O67648 whole entry): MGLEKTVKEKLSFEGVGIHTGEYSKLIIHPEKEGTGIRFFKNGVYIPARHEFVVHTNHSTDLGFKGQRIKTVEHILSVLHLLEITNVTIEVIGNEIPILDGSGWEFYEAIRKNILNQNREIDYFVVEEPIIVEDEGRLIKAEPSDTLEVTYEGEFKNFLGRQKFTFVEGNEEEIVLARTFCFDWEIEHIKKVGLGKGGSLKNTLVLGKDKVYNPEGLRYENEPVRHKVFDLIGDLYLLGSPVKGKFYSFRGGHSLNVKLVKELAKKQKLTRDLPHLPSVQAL

| Structure (SMILES) | Kd [nM] | Ki [nM] |
| --- | --- | --- |
| O=C(NO)[C@H]1COC(c2cc3cc(F)ccc3[nH]2)=N1 [CS272] | 772 |  |
| O=C(NO)c1csc(-c2ccc(OC(F)(F)F)c(Cl)c2)n1 [CS275] | 1820 |  |
| NC[C@H](NC(=O)c1ccc(C#CC#Cc2ccccc2)cc1)C(=O)NO [CS252] |  | 10 |
| C[C@@H](O)[C@H](NC(=O)c1ccc(C#CC#Cc2ccccc2)cc1)C(=O)NO [CS257] |  | 1 |
| C[C@@H](O)[C@H](NC(=O)c1ccc(-c2ccccc2)cc1)C(=O)NO [CS263] | 14 |  |
| NC[C@H](NC(=O)c1ccc(-c2ccccc2)cc1)C(=O)NO [CS249] | 145 |  |
| NC[C@H](NC(=O)c1ccc(-c2ccc(Br)cc2)cc1)C(=O)NO [CS250] | 29 |  |
| O=C(NO)[C@H]1COC(c2ccc(F)c(C(F)(F)F)c2)=N1 [CS271] | 443 |  |
| CCCc1ccc(-c2ccc(C3=N[C@@H](C(=O)NO)CO3)cc2)cc1 [CS274] | 415 |  |
| O=C(NO)[C@H]1COC(c2ccc(OC(F)(F)F)c(Cl)c2)=N1 [CS270] | 744 |  |
| C[C@@H](O)[C@H](NC(=O)c1ccc(-c2ccc(Br)cc2)cc1)C(=O)NO [CS258] |  | 1 |
| C[C@@H](O)[C@H](NC(=O)c1ccc(C#Cc2ccccc2)cc1)C(=O)NO [CS259] |  | 1 |
